Measurements reported in US10117874B2, “Combination of PI3K-inhibitors” (BAYER PHARMA AKTIENGESELLSCHAFT, priority 2013, dated 2018).

How the values were obtained:
[1] = tested on: MCF-7 breast cancer cells; assay: WST-1 based proliferation assay, MCF-7; assay type: cell-based, human; details: MCF-7 (ER+, PIK3CA mutation); WST-1 absorbance 450 nm, days 1-5; compound A′ 50/500 nM, compound B 1600/800 Bq/ml
Description: (§1) The effects of PI3K inhibitor compound A′ and compound B in MCF-7 and 4T1 breast cancer cells and PC-3 and LNCaP prostate cancer cells were investigated in vitro as single agent and in combination. The effects were studied by measuring cell proliferation and apoptosis. Compound B and the reference inhibitor doxorubicin were added at day 0. The PI3K inhibitors were added at day −1 (24 hours before addition of Alpharadin) and at day 4. The following two concentrations of the inhibitors and two concentrations of radium 223 in 4 replicates were tested:
(§2) The effects on cell proliferation were studied using a WST-1 based proliferation assay and the effects on apoptosis were studied in parallel plates by measuring caspase 3/7 activity. The measurements were performed at 4 different time points, days 1, 2, 3 and 5. Caspase activity was normalized to the cell number obtained with the WST-1 assay in parallel plates.
(§3) (A) The results are shown as Absorbance (450 nm) measured in the WST-1 proliferation assay (MEAN). (B) The results are shown as Caspase 3/7/WST-1 values (MEAN). […] (B) The effects of PI3K inhibitor compound A′ and Radium 223 on MCF-7 cell caspase 3/7 activity at days 2. The results are shown as Caspase 3/7/WST-1 values (MEAN+SEM).

[2] = tested on: 4T1 breast cancer cells; assay: WST-1 based proliferation assay, 4T1; assay type: cell-based, mouse
Description: as §1, §2
(§4) The results are shown as Absorbance (450 nm) measured in the WST-1 proliferation assay (MEAN).

[3] = tested on: PC-3 prostate cancer cells; assay: WST-1 based proliferation assay, PC-3; assay type: cell-based, human; details: PC3 (AR-negative, PTEN loss); WST-1 absorbance 450 nm, days 1-5; compound A′ 50/500 nM, compound B 1600/800 Bq/ml
Description: as §1, §2, §4

[4] = tested on: LNCaP prostate cancer cells; assay: WST-1 based proliferation assay, LNCaP; assay type: cell-based, human
Description: as §1, §2
(A) The results are shown as Absorbance (450 nm) measured in the WST-1 proliferation assay (MEAN).

[5] = tested on: MCF-7 breast cancer cells; assay: Apoptosis by caspase 3/7 activity, MCF-7; assay type: cell-based, human; details: day 2, caspase activity normalized to WST-1 cell number
Description: as §1, §2, §3

[6] = tested on: CRPC (Castration Resistant Prostate Cancer) and bone metastases; details: cited from earlier work
[7] = single doses up to 250 kBq per kg body weight; cited from earlier work
[8] = phase 1 and 2 studies; patients with bone metastases; cited from earlier work
[9] = tested on: CRPC and bone metastases; details: Phase 2 studies; cited from earlier work
[10] = LNCaP (AR-positive, PTEN loss), WST-1 absorbance 450 nm, days 1-5
[11] = WST-1 absorbance 450 nm, days 1-5, compound A′ 100/1000 nM, compound B 1600/800 Bq/ml
[12] = ALSYMPCA trial, patients with CRPC and bone metastases

SMILES | inhibition of tumor cell proliferation [1] | inhibition of tumor cell proliferation ([2]; lower (100 nM) dose) | inhibition of tumor cell proliferation [3] | inhibition of tumor cell proliferation [4, 10] | apoptosis / tumor cell death induction (caspase 3/7 / WST-1) [5] | inhibition of tumor cell proliferation [2, 11] | inhibition of tumor cell proliferation ([2]; higher dose) | inhibition of tumor cell proliferation ([4]; LNCaP, high dose (1600 Bq/mL)) | median survival longer than placebo [6, 12] [months] | reduction in risk of death compared with placebo [6, 12] [%] | time to first skeletal-related event ([6]; ALSYMPCA trial, versus placebo) | median overall survival ([6]; Phase III clinical trials) | cases of grade 3 neutropenia [7] | observed adverse reactions [7] | safety profile [8] | pain and disease-related biomarkers (bone ALP, PSA) [9]
COc1c(OCCCN2CCOCC2)ccc2c1N=C(NC(=O)c1cnc(N)nc1)N1CCN=C21.Cl.Cl [compound A′, 2-amino-N-[7-methoxy-8-(3-morpholin-4-ylpropoxy)-2,3-dihydroimidazo[1,2-c]quinazolin-5-yl]pyrimidine-5-carboxamide dihydrochloride] | potent anti-proliferative activity | only moderate inhibition of tumor cell proliferation | better anti-proliferactive activity | strong anti-proliferative effects | only at high dose can induce apoptosis |  |  |  |  |  |  |  |  |  |  | 
[Cl][223Ra][Cl] [compound B, radium-223 dichloride] | only slight inhibition of tumor cell proliferation |  | moderate inhibition of tumor cell proliferation |  | could not induce tumor cell death | only moderate inhibition of tumor cell proliferation | strong anti-proliferative effects | effective | 2.8 | 30.5 | significantly prolonged | Significant increase in median overall survival | ⅕ | diarrhea and reversible myelosuppression | favorable safety profile, with minimal myelotoxicity | reduces pain, improves disease-related biomarkers
COc1cccc2c1C(=O)c1c(O)c3c(c(O)c1C2=O)C[C@@](O)(C(=O)CO)C[C@@H]3O[C@H]1C[C@H](N)[C@H](O)[C@H](C)O1 [doxorubicin] | inhibited proliferation |  | inhibited proliferation | inhibited proliferation |  | inhibited proliferation |  |  |  |  |  |  |  |  |  | 
